Source: patent US20190365754A1, “METHOD OF ELIMINATING STEM CELLS” (Yissum Research Development Company Of The Hebrew …, priority 2014, published 2019)

Columns and labels:
[1] = tested on: beta catenin, p53, DNA damage response; assay: Stabilization of beta catenin and p53 and DNA damage response by CKI inhibitors
Wnt and p53 pathway = assay: Quantitative RT-PCR of p53 and Wnt targets in inhibitor-treated bone marrow cells; assay type: cell-based, mouse; settings: bone marrow cells treated in vitro; FIG. 5B
Description: (§1) Freshly isolated bone marrow from CML carrying mice was mixed with normal mice bone marrow in a 1:1 ratio and grown in RPMI supplemented with 15% FCS L-Glutamine, Pen/Strep, Hepes, Sodium Pyruvate, non-essential amino acids (Beit Haemek). PF670462 inhibitor was dissolved in DMSO and added to the tissue culture medium at the indicated concentrations and 0.1% DMSO. As for control, the cells were treated with vehicle only. After 36-48 h, cells were harvested and counted manually using a camera and standard inverted light microscope. Dead cells were excluded using Trypan Blue (sigma). The number of normal and BCR-ABL expressing cells was later extrapolated according to FACS analysis of % GFP^+/7AAD^− expressing cells. AnnexinV-PE (MBL), 7AAD (Tonbo) staining was evaluated by FACS according to manufacturer's recommendation.
Total RNA from cells was extracted using DirectZol RNA miniprep (Zymed). cDNA was generated using a poly(dT) oligonucleotides (IDT) and MMLV—Reverse Transcriptase (Invitrogen) and amplified on a 7900HT Real Time PCR System (Applied Biosystems) using Platinum® SYBR® Green (Invitrogen) according to the manufacturer's instructions. At least triplicate reactions were performed for each gene. Melting curve analysis was performed after each run to control for the nonspecific PCR products and primer dimers. […]

[2] = tested on: BCR-ABL expressing (GFP+) leukemic cells; assay: In vitro inhibitor test, leukemic cell number in 1:1 mixed CML/normal bone marrow culture; assay type: cell-based; settings: increasing concentration of inhibitor
Description: as §1

β-catenin, p53, c-Myc = assay: Western blot of bone marrow from inhibitor-treated CML carrying mice; assay type: in vivo, mouse; settings: daily i.p. 60 mg/Kg; FIG. 6B
Description: (§2) The PF670462 was dissolved in 20% 2-hydroxypropyl β-cyclodextrin (vehicle) and administered by daily I.P. of 60 mg/Kg starting 7 hour after disease transfer. The control mice were treated with the vehicle only.
Whole cell lysate were extracted in the presence of protease and phosphatase inhibitors from the bone marrow of CML carrying mice treated with either vehicle or PF670462.
Protein extracts, separated by […] and transferred onto nitrocellulose membranes, were probed with antibodies against beta-catenin, c-Myc, p53 and HSP90. Proteins of interest were detected with HRP-conjugated Donkey/Rabbit anti-mouse IgG antibody (1:5000. GE Healthcare, Uppsala, Sweden) and visualized with the Pierce ECL Western blotting substrate (Thermo Scientific, Rockford, Ill.), according to the provided protocol.

WT BM cells = assay: 7AAD-/Annexin+ apoptosis assay, WT BM cells; assay type: cell-based, mouse; settings: FIG. 5D
Description: as §1

leukemic cells = assay: 7AAD-/Annexin+ apoptosis assay, leukemic cells; assay type: cell-based, mouse; settings: FIG. 5D
Description: as §1

[3] = tested on: leukemia initiating cells (LIC); assay: BCR-ABL CML blast crisis mouse model, in vivo treatment
Description: To generate the BCR-ABL-inducible CML model, BM cells from MxCre^− Ck1α1^fl/fl or MxCre^+ Ck1 α1^fl/fl were extracted and enriched for cKit expressing cells (EasySep #18757) and incubated overnight in RPMI supplemented with 15% FCS L-Glutamine, Pen/Strep (Beit Haemek) and stem cell factor (SCF), IL-3, IL-6 and TPO (Peprotech). The culture was then infected with p210BCR-ABL-IRES-GFP retrovirus construct containing supernatant medium for 4 hours and returned to medium for additional 24 h. The culture was then injected I.V. into sub-lethally irradiated (500 rad) mice. Upon detectable steady increase of GFP expressing cells in the mice peripheral blood (by FACS) and rise in leukocyte numbers and immature cells (detected by Wright-Giemsa stained blood films) the mice were sacrificed and their bone marrow was transferred to sub-lethally irradiated WT hosts.
Each such transfer was termed disease generation. By the fourth transfer, the hosts were no longer sub-lethally irradiated prior to disease transfer and the time between generations was shorter (usually 10 days). Blast crisis development was easily detectable by the highly abnormal number of blast cells (more than 30% of WBC in PB) and the shortening time between transfers. The experimental procedure is illustrated in FIG. 3. Experiments were performed on late generation diseases in which blasts were easily detectable, no irradiation of hosts was necessary and the generation time was short (up to 14 days). Mice were monitored daily for cachexia, lethargy, and ruff coats, paralysis and moribund mice were sacrificed.
as §2

normal BM cells = assay: In vitro inhibitor test, normal cell number in 1:1 mixed CML/normal bone marrow culture; assay type: cell-based, mouse; settings: increasing concentration of inhibitor
Description: as §1

[4] = bone marrow of inhibitor-treated mice transplanted to lethally irradiated mice, one month after transplantation

## NCCNS(=O)(=O)c1ccc(Cl)c2ccncc12 [CKI7]
[1]
  induction of a DNA damage response: nor do they induce a DNA damage response
  stabilization of beta catenin and p53: none of these agents stabilize beta catenin and p53

## NC(=O)c1ccc(-c2nc(-c3ccc4c(c3)OCCO4)c(-c3ccccn3)[nH]2)cc1 [D4476]
[1]
  induction of a DNA damage response: nor do they induce a DNA damage response
  stabilization of beta catenin and p53: none of these agents stabilize beta catenin and p53

## COc1cc(OC)c(C=C2C(O)=Nc3ccccc32)c(OC)c1 [IC261]
[1]
  induction of a DNA damage response: nor do they induce a DNA damage response
  stabilization of beta catenin and p53: none of these agents stabilize beta catenin and p53

## Nc1nccc(-c2c(-c3ccc(F)cc3)ncn2C2CCCCC2)n1 [PF670462]
Wnt and p53 pathway
  expression of Wnt and p53 targets (RT-PCR): upregulation of Wnt and p53 in a dose dependent manner
[2]
  decline in leukemic cell number: much more prominent
β-catenin, p53, c-Myc
  β-catenin, p53 and c-Myc protein in bone marrow (Western blot): stabilization of β-catenin and p53 and induction of the Wnt target gene c-Myc
WT BM cells
  apoptotic cell rate (7AAD-/Annexin+): not significantly effected
Leukemic cells
  apoptotic cell rate (7AAD-/Annexin+): increase in apoptotic cell rate under the inhibitor treatment in a dosage dependent manner
[3]; [4]
  bone marrow reconstitution of secondary recipients (LT-HSC integrity): fully reconstitute
  leukemia GFP+ cells in peripheral blood of secondary recipients: no evidence of leukemia GFP+ cells
[3]; daily i.p. 60 mg/Kg starting 7 hour after disease transfer, FIG. 6C
  GFP+ leukemic cells in peripheral blood: almost undetectable
[3]; daily i.p. 60 mg/Kg, FIG. 6D
  bone marrow / vertebrate histology: normal bone marrow appearance with intact vertebrates
[3]; daily i.p. 60 mg/Kg, FIG. 6E
  blasts in peripheral blood: no blast were detected
[3]; daily i.p. 60 mg/Kg, vehicle group died within 12 days, FIG. 6F
  survival of leukemic mice: remained alive
Normal BM cells
  normal BM cell number: only slightly reduced
